Assay results taken from patent US20250154173A1 (Merck Sharp & Dohme LLC, priority 2023, published 2025).

Target: T1, GST-RIPK1 (recombinant GST-RIPK1 kinase domain (residues 1-327)) (Homo sapiens, UniProt Q13546)
T1 construct: recombinant GST-RIPK1 kinase domain (residues 1-327) enzyme produced from baculovirus-transfected Sf21 cells; host or cells: baculovirus-transfected Sf21 insect cells
T1 sequence (Q13546 1-327): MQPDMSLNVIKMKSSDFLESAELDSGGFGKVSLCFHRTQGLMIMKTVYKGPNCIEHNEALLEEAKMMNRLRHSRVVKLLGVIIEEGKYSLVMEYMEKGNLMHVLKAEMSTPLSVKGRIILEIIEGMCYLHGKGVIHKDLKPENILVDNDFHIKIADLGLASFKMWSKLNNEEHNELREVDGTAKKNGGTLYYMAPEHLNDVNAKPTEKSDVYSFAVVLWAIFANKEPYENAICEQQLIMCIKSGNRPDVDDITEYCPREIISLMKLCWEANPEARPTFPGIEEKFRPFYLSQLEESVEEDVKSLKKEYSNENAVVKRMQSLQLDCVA
Assay: RIPK1-ADP-Glo Enzymatic Assay
Assay type: biochemical
Details: ten-point titration, top compound concentration of 100000 nM; 25 nM GST-RIPK1, 300 μM ATP, 3 μM dephosphorylated-MBP; 30 min pre-incubation, 150 min reaction
How it was run: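 ADP-Glo luminescence quantifies ADP formed over 150 minutes by 25 nM Sf21-produced GST-RIPK1 (1-327) using 300 μM ATP and 3 μM dephosphorylated MBP, following 30-minute compound preincubation at 1% DMSO. Ten-point 1:3 series from 100000 nM gave EC50 via four-parameter sigmoidal regression.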

| Compound | EC50 |
| --- | --- |
| O=C1N2[C@@H](CC[C@H]2c2cnccn2)OC12CC(Oc1cc(F)ccc1F)C2 (stereo partly drawn) [Example 12.6, (5′S,7a′R)-3-(2,5-difluorophenoxy)-5′-(pyrazin-2-yl)tetrahydro-3′H-spiro[cyclobutane-1,2′-pyrrolo[2,1-b][1,3]oxazol]-3′-one] | 16 nM |
| O=C1N2C(CC[C@H]2c2cnccn2)OC12CC(OCc1cccc3nccn13)C2 (stereo partly drawn) [Example 18.36, (5′S)-3-[(imidazo[1,2-a]pyridin-5-yl)methoxy]-5′-(pyrazin-2-yl)tetrahydro-3′H-spiro[cyclobutane-1,2′-pyrrolo[2,1-b][1,3]oxazol]-3′-one] | 28 nM |
| O=C1N2[C@@H](CC[C@H]2c2cc(F)cc(F)c2)OC12CC(Oc1ccc(F)cn1)C2 (single isomer, unassigned) [Example 9.35] | 64 nM |
| N#Cc1cc(OC2CC3(C2)O[C@@H]2CC[C@@H](c4cccc(F)c4F)N2C3=O)ncn1 (single isomer, unassigned) [Example 9.40, 6-{[(5′S,7a′R)-5′-(2,3-difluorophenyl)-3′-oxotetrahydro-3′H-spiro[cyclobutane-1,2′-pyrrolo[2,1-b][1,3]oxazol]-3-yl]oxy}pyrimidine-4-carbonitrile] | 474 nM |
| COc1cc(OC2CC3(C2)O[C@@H]2CC[C@@H](c4ccccc4)N2C3=O)ccc1F (stereo partly drawn) [Example 8.18, (5′S,7a′R)-3-(4-fluoro-3-methoxyphenoxy)-5′-phenyltetrahydro-3′H-spiro[cyclobutane-1,2′-pyrrolo[2,1-b][1,3]oxazol]-3′-one] | 21 nM |
| O=C1N2[C@@H](CC[C@H]2c2cnccn2)O[C@]12C[C@@H](OCc1ccc3scnc3c1)C2 [Example 18.23, (1s,3S,5′S,7a′R)-3-[(1,3-benzothiazol-5-yl)methoxy]-5′-(pyrazin-2-yl)tetrahydro-3′H-spiro[cyclobutane-1,2′-pyrrolo [2,1-b][1,3]oxazol]-3′-one] | 27 nM |
| O=C1N2[C@@H](CC[C@H]2c2ccccc2)OC12CC(Oc1cccc(C(F)(F)F)c1)C2 (stereo partly drawn) [Example 8.15, (5′S,7a′R)-5′-phenyl-3-[3-(trifluoromethyl)phenoxy]tetrahydro-3′H-spiro[cyclobutane-1,2′-pyrrolo[2,1-b][1,3]oxazol]-3′-one] | 37 nM |
| N#Cc1ccc(OC2CC3(C2)O[C@@H]2CC[C@@H](c4ccccc4)N2C3=O)cc1 (some centres unmarked) [Example 8.9] | 72 nM |
| O=C1N2C(CC[C@H]2c2cnccn2)OC12CC(OCc1cc(Cl)ccc1-c1cnco1)C2 (stereo partly drawn) [Example 18.82, (5′S)-3-{[5-chloro-2-(1,3-oxazol-5-yl)phenyl]methoxy}-5′-(pyrazin-2-yl)tetrahydro-3′H-spiro[cyclobutane-1,2′-pyrrolo[2,1-b][1,3]oxazol]-3′-one] | 99 nM |
| N#Cc1ccnc(O[C@H]2C[C@@]3(C2)O[C@@H]2CC[C@@H](c4ccc(F)cc4)N2C3=O)c1 [Example 9.28, 2-{[(1r,3R,5′S,7a′R)-5′-(4-fluorophenyl)-3′-oxotetrahydro-3′H-spiro[cyclobutane-1,2′-pyrrolo[2,1-b][1,3]oxazol]-3-yl]oxy}pyridine-4-carbonitrile] | 16 nM |
| O=C1N2C(CC[C@H]2c2cnccn2)OC12CC(OCc1ccc3cnccc3c1)C2 (stereo partly drawn) [Example 18.37, (5′S)-3-[(isoquinolin-6-yl)methoxy]-5′-(pyrazin-2-yl)tetrahydro-3′H-spiro[cyclobutane-1,2′-pyrrolo[2,1-b][1,3]oxazol]-3′-one] | 15 nM |
| O=C1N2[C@@H](CC[C@H]2c2ccccc2)OC12CC(Oc1ccc3sncc3c1)C2 (stereo partly drawn) [Example 8.14, (5′S,7a′R)-3-[(1,2-benzothiazol-5-yl)oxy]-5′-phenyltetrahydro-3′H-spiro[cyclobutane-1,2′-pyrrolo[2,1-b][1,3]oxazol]-3′-one] | 83 nM |
| O=C1N2C(CC[C@H]2c2cnccn2)OC12CC(OCc1ccc(Cn3ccnc3)cc1)C2 (stereo partly drawn) [Example 18.25, (5′S)-3-({4-[(1H-imidazol-1-yl)methyl]phenyl}methoxy)-5′-(pyrazin-2-yl)tetrahydro-3′H-spiro[cyclobutane-1,2′-pyrrolo[2,1-b][1,3]oxazol]-3′-one] | 48 nM |
| Cn1cc(C2CCC3OC4(CC(Oc5cc(C#N)ncn5)C4)C(=O)N32)cn1 (single isomer, unassigned) [Example 6.2, 6-((((1s or r),3R,5′(S or R),7a′R)-5′-(1-methyl-1H-pyrazol-4-yl)-3′-oxotetrahydro-3′H-spiro[cyclobutane-1,2′-pyrrolo[2,1-b]oxazol]-3-yl)oxy)pyrimidine-4-carbonitrile] | 99000 nM |
| O=C1N2[C@H](CC[C@H]2c2cnccn2)O[C@]12C[C@@H](Oc1ncnn3cccc13)C2 [Example 9.51, (1s,3R,5′R,7a′S)-5′-(pyrazin-2-yl)-3-(pyrrolo[2,1-f][1,2,4]triazin-4-yloxy)tetrahydro-3′H-spiro[cyclobutane-1,2′-pyrrolo[2,1-b]oxazol]-3′-one] | 56 nM |
| O=C1N2[C@@H](CC[C@H]2c2cc(F)cc(F)c2)O[C@]12C[C@H](Oc1cc(-n3cc(C(F)F)cn3)ncn1)C2 [Example 9.56, (5′S,7a′R)-3-((6-(4-(difluoromethyl)-1H-pyrazol-1-yl)pyrimidin-4-yl)oxy)-5′-(3,5-difluorophenyl)tetrahydro-3′H-spiro[cyclobutane-1,2′-pyrrolo[2,1-b]oxazol]-3′-one] | 18 nM |
| COc1cncc(OC2CC3(C2)O[C@@H]2CC[C@@H](c4ccccc4)N2C3=O)c1 (stereo partly drawn) [Example 8.6, (5′S,7a′R)-3-[(5-methoxypyridin-3-yl)oxy]-5′-phenyltetrahydro-3′H-spiro[cyclobutane-1,2′-pyrrolo[2,1-b][1,3]oxazol]-3′-one] | 65 nM |

The remaining lines, values ahead:

| EC50 | Compound |
| --- | --- |
| 45 nM | O=C1N2C(CC[C@H]2c2cnccn2)OC12CC(OCc1ccc(-c3ccon3)cc1)C2 (stereo partly drawn) [Example 18.80, (5′S)-3-{[4-(1,2-oxazol-3-yl)phenyl]methoxy}-5′-(pyrazin-2-yl)tetrahydro-3′H-spiro[cyclobutane-1,2′-pyrrolo[2,1-b][1,3]oxazol]-3′-one] |
| 60 nM | N#CCCc1ccc(COC2CC3(C2)OC2CC[C@@H](c4cnccn4)N2C3=O)cc1 (stereo partly drawn) [Example 18.47, 3-[4-({[(5′S)-3′-oxo-5′-(pyrazin-2-yl)tetrahydro-3′H-spiro[cyclobutane-1,2′-pyrrolo[2,1-b][1,3]oxazol]-3-yl]oxy}methyl)phenyl]propanenitrile] |
| 316 nM | O=C1N2[C@@H](CC[C@H]2c2cnccn2)OC12CC(OCC1CCCC1)C2 (single isomer, unassigned) [Example 23.3, (5′S,7a′R)-3-(cyclopentylmethoxy)-5′-(pyrazin-2-yl)tetrahydro-3′H-spiro[cyclobutane-1,2′-pyrrolo[2,1-b]oxazol]-3′-one] |
| 150 nM | COc1ccc(COC2CC3(C2)OC2CC[C@@H](c4cnccn4)N2C3=O)cn1 (stereo partly drawn) [Example 18.70, (5′S)-3-[(6-methoxypyridin-3-yl)methoxy]-5′-(pyrazin-2-yl)tetrahydro-3′H-spiro[cyclobutane-1,2′-pyrrolo[2,1-b][1,3]oxazol]-3′-one] |
| 196 nM | O=C1N2[C@@H](CC[C@H]2c2cnccn2)OC12CC(OCc1ccccn1)C2 (stereo partly drawn) [Example 20.2, (5′S,7a′R)-5′-(pyrazin-2-yl)-3-[(pyridin-2-yl)methoxy]tetrahydro-3′H-spiro[cyclobutane-1,2′-pyrrolo[2,1-b][1,3]oxazol]-3′-one] |
| 367 nM | O=C1N2C(CC[C@H]2c2cnccn2)OC12CC(OCc1cnn(-c3ccncc3)c1)C2 (some centres unmarked) [Example 18.101] |
| 44 nM | O=C1N2[C@@H](CC[C@H]2c2cnccn2)OC12CC(OCc1ccc3cnoc3c1)C2 (stereo partly drawn) [Example 18.110, (5′S,7a′R)-3-(benzo[d]isoxazol-6-ylmethoxy)-5′-(pyrazin-2-yl)tetrahydro-3′H-spiro[cyclobutane-1,2′-pyrrolo [2,1-b]oxazol]-3′-one] |
| 117 nM | O=C1N2C(CC[C@H]2c2cnccn2)OC12CC(OCc1ccccc1-n1cccn1)C2 (stereo partly drawn) [Example 18.53, (5′S)-5′-(pyrazin-2-yl)-3-{[2-(1H-pyrazol-1-yl)phenyl]methoxy}tetrahydro-3′H-spiro[cyclobutane-1,2′-pyrrolo[2,1-b][1,3]oxazol]-3′-one] |
| 301 nM | O=C1N2C(CC[C@H]2c2cnccn2)OC12CC(OCc1cc(-n3ccnc3)ccn1)C2 (some centres unmarked) [Example 18.39] |
| 16 nM | Cn1nccc1-c1cccc(OC2CC3(C2)O[C@@H]2CC[C@@H](c4cnccn4)N2C3=O)c1 (stereo partly drawn) [Example 19.14, (5′S,7a′R)-3-[3-(1-methyl-1H-pyrazol-5-yl)phenoxy]-5′-(pyrazin-2-yl)tetrahydro-3′H-spiro[cyclobutane-1,2′-pyrrolo[2,1-b][1,3]oxazol]-3′-one] |
| 59 nM | N#CCc1ncc(COC2CC3(C2)OC2CC[C@@H](c4cnccn4)N2C3=O)cc1Cl (stereo partly drawn) [Example 18.49, [3-chloro-5-({[(5′S)-3′-oxo-5′-(pyrazin-2-yl)tetrahydro-3′H-spiro[cyclobutane-1,2′-pyrrolo[2,1-b][1,3]oxazol]-3-yl]oxy}methyl)pyridin-2-yl]acetonitrile] |
| 790 nM | Cc1ccc(OC2CC3(C2)O[C@@H]2CC[C@@H](c4ccn(C)n4)N2C3=O)cn1 (stereo partly drawn) [Example 19.12, (5′S,7a′R)-5′-(1-methyl-1H-pyrazol-3-yl)-3-[(6-methylpyridin-3-yl)oxy]tetrahydro-3′H-spiro[cyclobutane-1,2′-pyrrolo[2,1-b][1,3]oxazol]-3′-one] |
